The values below come from patent publication US20230339878A1, “SLC26A3 INHIBITORS AND USE THEREOF” (THE REGENTS OF THE UNIVERSITY OF CALIFORNIA, priority 2018, published 2023).

Assay [1] relates to mouse distal colonic closed loops. Kind of assay: Closed distal colonic loop fluid absorption in mice. The following applies: 10 µM intraluminal, 60 min. It is filed as in vivo. The protocol:
(§1) Female CD1 mice (age 8-10 weeks) were given free access to Pedialyte (per liter: Na^+ 45 mEq, Cl^- 35 mEq, K^+ 20 mEq, dextrose 25 g; Abbott, Abbot Park, IL) but not solid food for 48 h before experiments. Mice were treated with 500 µL mineral oil once a day rectally (last dose 12 h before surgeries) during this period to evacuate the colon. Closed intestinal loops were isolated as described. Mice were anesthetized with isoflurane and body temperature was maintained during surgery at 36-38° C. using a heating pad. A small abdominal incision was made to expose the distal colon, and one closed distal colonic loop (length 1.5-2 cm) was isolated with sutures in each mouse. Loops were injected with 100 µL phosphate-buffered saline (PBS, pH: 7.4, in mM: 137 NaCl, 2.7 KCl, 8 Na2HPO4, 1.8 KH2PO4, 1 CaCl2, 0.5 MgCl2) without and with 10 µM Compound A1 and/or 10 µM tenapanor (MedChemExpress, Monmouth Junction, NJ). The abdominal incision was closed with sutures, and mice were allowed to recover from anesthesia. Colonic loops were removed at 0 and 60 min (in separate mice) and loop length and weight were measured to quantify fluid absorption. Luminal fluid was emptied with a syringe and pH was measured immediately using AB15 pH Meter (Thermo Fisher Scientific, South San Francisco, CA). In separate studies, mid-jejunal loops (length 2-3 cm, 3-4 loops per mouse) were isolated as described above, injected with 100 µL PBS without or with 10 µM Compound A1 and/or 10 µM tenapanor, and excised at 0 and 30 min to measure loop length and weight.
Closed intestinal loop studies in mice were done to study effects of Compound A1 on fluid absorption. […] Changes in luminal pH were also determined as a semi-quantitative measure of slc26a3-facilitated HCO3^- secretion / C1^- absorption, with slc26a3 inhibition predicted to reduce luminal fluid alkalinization. For these experiments, a phosphate-buffered solution (PBS) without HCO3^- / CO2 was used to avoid confounding effects of luminal carbonic anhydrases. […] Administration of the NHE3 (Na^+/H^+ exchanger 3) inhibitor tenapanor had no effect on weight/length ratio or luminal pH in distal colonic loops.

The subject of assay [2] is mouse mid-jejunal closed loops. Briefly: Closed mid-jejunal loop fluid absorption in mice. It is filed as in vivo. The following applies: 10 µM intraluminal, 30 min. The protocol:
as §1

Assay [3] deals with loperamide-treated wild-type mice. Kind of assay: Loperamide-induced constipation model in wild-type mice. Format: in vivo. To be noted: 5 mg/kg oral gavage 1 hour before loperamide, wild-type mice. The protocol:
Female CD1 mice (age 8-10 weeks) were administered loperamide (0.3 mg/kg, intraperitoneally, Sigma-Aldrich) to produce constipation. Compound A1 (DRAinh-A250) (5 mg/kg, in saline containing vehicle (5% DMSO and 10% Kolliphor HS 15; Sigma-Aldrich)), tenapanor (5 mg/kg, in vehicle), both compounds (5 mg/kg each, in vehicle), or vehicle alone were administered by oral gavage 1 hour before loperamide. After loperamide injection, mice were placed individually in metabolic cages with ad libitum access to food and water. Stool samples were collected for 3 h, and total stool weight and number of fecal pellets were quantified. To measure stool water content, stool samples were dried at 80° C. for 24 h and water content was calculated as [wet weight-dry weight]/wet weight. Similar studies were done in cystic fibrosis (CF) mice (ΔF508 homozygous) lacking functional CFTR.
Constipation Model in MiceDRAinh-A260 and DRAinh-A270 were tested in a loperamide-induced constipation model in mice. Female CD1 mice (age 8-10 weeks) were administered loperamide (0.3 mg/kg, intraperitoneally, in 5% ethanol in PBS, 0.1 mg/mL final concentration) to produce constipation and vehicle in control mice. DRAinh-A260 (5 mg/kg, in saline with 5% DMSO and 10% Kolliphor HS 15) or DRAinh-A270 (1, 3 or 10 mg/kg, in PBS with 5% DMSO and 20% (2- hydroxypropyl)-β-cyclodextrin) or vehicle alone were administered by oral gavage 1 hour before loperamide (FIG. 11A). After loperamide injection, mice were placed individually in metabolic cages with free access to food and water. Stool samples were collected for 3 hours, and total stool weight and number of fecal pellets were quantified. To measure stool water content, stool samples were dried at 80° C. for 24 hours and water content was calculated as [wet weight-dry weight]/wet weight.

A further assay concerns the target T1, NHE3 (Homo sapiens, UniProt P48764).
T1 sequence (P48764 26-834): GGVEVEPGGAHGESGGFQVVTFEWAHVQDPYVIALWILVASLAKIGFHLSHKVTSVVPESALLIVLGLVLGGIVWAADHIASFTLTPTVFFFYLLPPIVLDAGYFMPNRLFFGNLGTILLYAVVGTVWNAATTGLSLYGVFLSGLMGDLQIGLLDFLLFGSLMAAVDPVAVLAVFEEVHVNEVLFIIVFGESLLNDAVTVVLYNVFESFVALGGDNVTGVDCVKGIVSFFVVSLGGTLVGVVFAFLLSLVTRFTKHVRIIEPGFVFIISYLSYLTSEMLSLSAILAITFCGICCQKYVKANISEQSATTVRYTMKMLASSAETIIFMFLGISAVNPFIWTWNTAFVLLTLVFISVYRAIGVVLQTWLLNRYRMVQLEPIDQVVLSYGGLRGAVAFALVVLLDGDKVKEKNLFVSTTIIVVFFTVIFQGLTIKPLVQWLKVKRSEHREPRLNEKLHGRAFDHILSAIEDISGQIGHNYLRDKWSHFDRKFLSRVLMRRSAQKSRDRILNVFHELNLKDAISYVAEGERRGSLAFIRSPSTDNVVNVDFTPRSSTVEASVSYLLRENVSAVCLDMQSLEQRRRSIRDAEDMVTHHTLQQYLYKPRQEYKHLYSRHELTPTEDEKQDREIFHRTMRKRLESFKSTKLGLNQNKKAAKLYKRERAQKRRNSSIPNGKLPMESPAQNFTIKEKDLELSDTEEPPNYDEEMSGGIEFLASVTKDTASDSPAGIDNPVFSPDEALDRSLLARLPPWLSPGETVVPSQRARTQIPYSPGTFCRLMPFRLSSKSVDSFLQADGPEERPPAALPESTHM
The following applies: Phase 3, IBS-C, treated group (placebo 18.7 %); cited from earlier work.

Each structure is given as a SMILES string. Entries after “also recorded” stand apart in the source; their conditions may differ.

For the compound `CN1Cc2c(Cl)cc(Cl)cc2[C@H](c2cccc(S(=O)(=O)NCCOCCOCCNC(=O)NCCCCNC(=O)NCCOCCOCCNS(=O)(=O)c3cccc([C@@H]4CN(C)Cc5c(Cl)cc(Cl)cc54)c3)c2)C1` [tenapanor, reference compound], in assay [1], the “loop weight/length ratio (fluid absorption), distal colonic loops” value is listed as “had no effect” and the “luminal pH, distal colonic loops” value is listed as “had no effect”. Moreover, in assay [2], the “loop weight/length ratio (fluid absorption), mid-jejunal loops” value is recorded as “fluid absorption was abolished; also recorded: blocked absorption in jejunal”; the “luminal fluid pH, mid-jejunal loops” value is “preventing acidification and producing slight alkalinization”. Besides, in assay [3], the “three-hour stool weight, number of pellets and stool water content” value is “comparably reduced signs of constipation”. In addition, the “three-hour stool weight, number of pellets and stool water content” value in assay [3] (listed as Tenapanor) is given as “partially prevented”. The “combined pain and stool pattern response rate” value on NHE3 is listed as 27%.
